In US8779157B2, “MGLUR4 allosteric potentiators, compositions, and methods of treating neurological dysfunction” (Vanderbilt University, priority 2009, dated 2014) one finds EC50 data, which are given here for 28 compounds.

pEC50: −log10 of the molar value.

The test has as its target mGluR4 (UniProt Q14833). Kind of test: mGluR4 potentiation assay (fluorescence, Ca2+ or thallium/GIRK readout; EC20 agonist). The test is classed as cell-based, human / rat. The settings on record: half maximal effective concentration for mGluR4 potentiation; species of receptor not given. The method, then: The disclosed compounds and compositions can be evaluated for their ability to act as a potentiator of metabotropic glutamate receptor activity, in particular mGluR4 activity, by any suitable known methodology known in the art. For example, Chinese Hamster Ovary (CHO) cells transfected with human mGluR4 or HEK cells co-transfected with rat mGluR4 and the G-protein regulated Inwardly Rectifying Potassium channel (GIRK) were plated in clear bottom assay plates for assay in a Hamamatsu FDSS Fluorometric Plate Reader. The cells were loaded with either a Ca2+-sensitive fluorescent dye or the thallium responsive dye and the plates were washed and placed into a suitable kinetic plate reader. For human mGluR4 assays, a fluorescence baseline was established for 3-5 seconds, the disclosed compounds were then added to the cells, and the response in cells was measured. Approximately two and a half minutes later, a concentration of mGluR4 orthosteric agonist (e.g. glutamate or L-AP4) eliciting approximately 20% (EC20) of the maximal agonist response was added to the cells, and the response was measured. Two minutes later, a concentration of mGluR4 agonist (e.g. glutamate or L-AP4) eliciting 80% (EC80) of the maximal agonist response was added to the cells, and the response was measured. For rat mGluR4/GIRK experiments, a baseline was established for approximately five seconds, disclosed compounds were added, and either an EC20 or EC80 concentration of agonist was added approximately two and one half minutes later. Potentiation of the agonist response of mGluR4 by the disclosed compounds was observed as an increase in response to the EC20 concentration of agonist in the presence of compound compared to the response to agonist in the absence of compound. Similarly, antagonism of the agonist response of mGluR4 by the disclosed compounds was observed as a decrease in response to the EC80 concentration of agonist in the presence of compound compared to the response to agonist in the absence of compound.
The above described assay operated in two modes. In the first mode, a range of concentrations of the disclosed compounds are added to cells, followed by a single fixed concentration of agonist. If the compound acts as a potentiatior, an EC50 value for potentiation and a maximum extent of potentiation by the compound at this concentration of agonist is determined by non-linear curve fitting. If the compound acts as a noncompetitive antagonist, an IC50 value is determined by non-linear curve fitting. In the second mode, several fixed concentrations of the disclosed compounds are added to various wells on a plate, followed by a range in concentrations of agonist for each concentration of disclosed compound. The EC50 values for the agonist at each concentration of compound are determined by non-linear curve fitting. A decrease in the EC50 value of the agonist with increasing concentrations of the sample compound (a leftward shift of the agonist concentration-response curve) is an indication of the degree of mGluR4 potentiation at a given concentration of the sample compound. A decrease in the maximal response of the agonist with increasing concentrations of the sample compounds, with or without a rightward shift in agonist potency, is an indication of the degree of noncompetitive antagonism at mGluR4. The second mode also indicates whether the sample compounds also affect the maximum response to mGluR4 to agonists.

The pEC50 is the negative decadic logarithm of the EC50, by convention in mol/L. Take `CC(C)C[C@@]1(C)NC(=O)N(c2ccc(NC(=O)c3ccccn3)cc2Cl)C1=O` [Example 1.3.17, (R)-N-(3-chloro-4-(4-isobutyl-4-methyl-2,5-dioxoimidazolidin-1-yl)phenyl)picolinamide]: the pEC50 was 5.82.

Consider `O=C(Nc1ccc(N2C(=O)C3CCCCN3C2=S)c(Cl)c1)c1ncccc1F` (stereo not shown) [Example 1.3.84, N-(3-chloro-4-(1-oxo-3-thioxohexahydroimidazo[1,5-a]pyridin-2(3H)-yl)phenyl)-3-fluoropicolinamide], for which the negative-log EC50 (pEC50) was 6.00.

On to `C[C@@]1(Cc2ccccc2)NC(=O)N(c2ccc(NC(=O)c3cccc(F)n3)cc2Cl)C1=O` [Example 1.3.69, (S)-N-(4-(4-benzyl-4-methyl-2,5-dioxoimidazolidin-1-yl)-3-chlorophenyl)-6-fluoropicolinamide], for which the pEC50 is 5.79.

Consider `CC(C)(C)C(=O)N1CCN2C(=O)N(c3ccc(NC(=O)c4ccccn4)cc3Cl)C(=O)C2C1` (stereo not shown) [Example 1.3.73, N-(3-chloro-4-(1,3-dioxo-7-pivaloylhexahydroimidazo[1,5-a]pyrazin-2(3H)-yl)phenyl)picolinamide], for which the pEC50 is 5.97.

In the case of `O=C(Nc1ccc(N2C(=O)C3COCCN3C2=S)c(Cl)c1)c1ncccc1F` (stereo not shown) [Example 1.3.39, N-(3-Chloro-4-(1-oxo-3-thioxodihydro-1H-imidazo[5,1-c][1,4]oxazin-2(3H, 8H,8aH)-yl)phenyl)-3-fluoropicolinamide], the negative-log EC50 (pEC50) was 5.92.

Regarding `CN1C(=O)N(c2ccc(NC(=O)c3ccccn3)cc2Cl)C(=O)C12CCCCC2` [Example 1.3.52, N-(3-chloro-4-(1-methyl-2,4-dioxo-1,3-diazaspiro[4.5]decan-3-yl)phenyl)picolinamide], the pEC50 is 6.75.

Turning to `O=C(Nc1ccc(N2C(=O)C3CN(C(=O)c4ccco4)CCN3C2=O)c(Cl)c1)c1ccccn1` (stereo not shown) [Example 1.3.74, N-(3-chloro-4-(7-(furan-2-carbonyl)-1,3-dioxohexahydroimidazo[1,5-a]pyrazin-2(3H)-yl)phenyl)picolinamide], the negative logarithm of the EC50 (pEC50) is 6.01.

As for `O=C(Nc1ccc(N2C(=O)C3CCCCN3C2=O)c(Cl)c1)c1ncccc1F` (stereo not shown) [Example 1.3.7, N-(3-Chloro-4-(1,3-dioxotetrahydroimidazo[1,5-a]pyridin-2(1H,3H,5H)-yl)phenyl)-3-fluoropicolinamide], the pEC50 is 5.48.

Consider `CC(C)(C)OC(=O)N1CCN2C(=O)N(c3ccc(NC(=O)c4ccccn4)cc3Cl)C(=O)C2C1` (stereo not shown) [Example 1.3.44, tert-butyl-2-(2-chloro-4-(picolinamide)phenyl)-1,3-dioxohexahydroimidazo[1,5-a]pyrazine-7(1H)-carboxylate], for which the pEC50 was 6.12.

Regarding `O=C(Nc1ccc(N2C(=O)C3COCCN3C2=O)c(Cl)c1)c1cscn1` (stereo not shown) [Example 1.3.26, N-(3-Chloro-4-(1,3-dioxodihydro-1H-imidazo[5,1-c][1,4]oxazin-2(3H,8H,8aH)-yl)phenyl)thiazole-4-carboxamide], the pEC50 is 5.21.

Turning to `O=C(Nc1ccc(N2C(=O)C3CCCCN3C2=O)c(Cl)c1)c1ccncn1` (stereo not shown) [Example 1.3.6, N-(3-Chloro-4-(1,3-dioxotetrahydroimidazo[1,5-a]pyridin-2(1H,3H,5H)-yl)phenyl)pyrimidine-4-carboxamide], the pEC50 was 5.59.

On to `O=C(Nc1ccc(N2C(=O)C3CCCCN3C2=S)c(Cl)c1)c1nccs1` (stereo not shown) [Example 1.3.79, N-(3-chloro-4-(1-oxo-3-thioxohexahydroimidazo[1,5-a]pyridin-2(3H)-yl)phenyl)thiazole-2-carboxamide], for which the pEC50 is 5.87.

Take `O=C(Nc1ccc(N2C(=O)C3COCCN3C2=O)c(Cl)c1)c1cccc(Cl)n1` (stereo not shown) [Example 1.3.23, 6-Chloro-N-(3-chloro-4-(1,3-dioxodihydro-1H-imidazo[5,1-c][1,4]oxazin-2(3H,8H,8aH)-yl)phenyl)picolinamide]: the pEC50 is 5.32.

With `CC12CCCCN1C(=S)N(c1ccc(NC(=O)c3cccc(Cl)n3)cc1Cl)C2=O` (stereo not shown) [Example 1.3.93, 6-chloro-N-(3-chloro-4-(8a-methyl-1-oxo-3-thioxohexahydroimidazo[1,5-a]pyridin-2(3H)-yl)phenyl)picolinamide], the pEC50 is 5.62.

Take `CC12CCCCN1C(=S)N(c1ccc(NC(=O)c3ccc(Cl)o3)cc1Cl)C2=O` (stereo not shown) [Example 1.3.97, 5-chloro-N-(3-chloro-4-(8a-methyl-1-oxo-3-thioxohexahydroimidazo[1,5-a]pyridin-2(3H)-yl)phenyl)furan-2-carboxamide]: the pEC50 was 6.08.

As for `CC(C)(C)[C@@H]1NC(=O)N(c2ccc(NC(=O)c3ccccn3)cc2Cl)C1=O` [Example 1.3.57, (S)-N-(4-(4-(tert-butyl)-2,5-dioxoimidazolidin-1-yl)-3-chlorophenyl)picolinamide], the pEC50 was 6.70.

Regarding `O=C(Nc1ccc(N2C(=O)C3CCCCN3C2=O)c(Cl)c1)c1cscn1` (stereo not shown) [Example 1.3.5, N-(3-Chloro-4-(1,3-dioxotetrahydroimidazo[1,5-a]pyridin-2(1H,3H,5H)-yl)phenyl)thiazole-4-carboxamide], the pEC50 was 5.70.

For `O=C(Nc1ccc(N2C(=O)C3CCCCN3C2=O)c(Cl)c1)c1cccc(F)n1` (stereo not shown) [Example 1.3.4, N-(3-Chloro-4-(1,3-dioxotetrahydroimidazo[1,5-a]pyridin-2(1H,3H,5H)-yl)phenyl)-6-fluoropicolinamide], the pEC50 is 5.78.

With `O=C(Nc1ccc(N2C(=O)NC3(CC4CCC3C4)C2=O)c(Cl)c1)c1ccccn1` (stereo not shown) [Example 1.3.53, N-(3-chloro-4-(2′,5′-dioxospiro[bicyclo[2.2.1]heptane-2,4′-imidazolidin]-1′-yl)phenyl)picolinamide], the pEC50 is 6.66.

In the case of `CN1CC(=O)N(c2ccc(NC(=O)c3ccccn3)cc2Cl)C1=O` [Example 1.3.11, N-(3-chloro-4-(3-methyl-2,5-dioxoimidazolin-1-yl)phenyl)picolinamide], the pEC50 is 5.15.

Regarding `O=C(Nc1ccc(N2C(=O)C3COCCN3C2=S)c(Cl)c1)c1cnccn1` (stereo not shown) [Example 1.3.31, N-(3-Chloro-4-(1-oxo-3-thioxodihydro-1H-imidazo[5,1-c][1,4]oxazin-2(3H,8H,8aH)-yl)phenyl)pyrazine-2-carboxamide], the pEC50 is 5.45.

On to `C[C@@]1(Cc2ccc(F)cc2)NC(=O)N(c2ccc(NC(=O)c3ccccn3)cc2Cl)C1=O` [Example 1.3.61, (S)-N-(3-chloro-4-(4-(4-fluorobenzyl)-4-methyl-2,5-dioxoimidazolidin-1-yl)phenyl)picolinamide], for which the negative logarithm of the EC50 (pEC50) is 6.47.

Turning to `C[C@@]1(Cc2ccccc2)NC(=O)N(c2ccc(NC(=O)c3ncc(F)cc3F)cc2Cl)C1=O` [Example 1.3.66, (S)-N-(4-(4-benzyl-4-methyl-2,5-dioxoimidazolidin-1-yl)-3-chlorophenyl)-3,5-difluoropicolinamide], the pEC50 is 5.53.

Take `CC(C)N1C(=O)N(c2ccc(NC(=O)c3ccccn3)cc2Cl)C(=O)[C@@H]1C(C)(C)C` [Example 1.3.58, (S)-N-(4-(4-(tert-butyl)-3-isopropyl-2,5-dioxoimidazolidin-1-yl)-3-chlorophenyl)picolinamide]: the pEC50 was 6.70.

`O=C(Nc1ccc(N2C(=O)C3COCCN3C2=O)c(Cl)c1)c1ncccc1F` (stereo not shown) [Example 1.3.22, N-(3-Chloro-4-(1,3-dioxodihydro-1H-imidazo[5,1-c][1,4]oxazin-2(3H,8H,8aH)-yl)phenyl)-3-fluoropicolinamide]: the pEC50 was 5.24.

In the case of `COc1cccc(C(=O)Nc2ccc(N3C(=O)N[C@@](C)(Cc4ccccc4)C3=O)c(Cl)c2)n1` [Example 1.3.68, (S)-N-(4-(4-benzyl-4-methyl-2,5-dioxoimidazolidin-1-yl)-3-chlorophenyl)-6-methoxypicolinamide], the pEC50 is 5.23.

With `CC12CCCCN1C(=S)N(c1ccc(NC(=O)c3cccnn3)cc1Cl)C2=O` (stereo not shown) [Example 1.3.100, N-(3-chloro-4-(8a-methyl-1-oxo-3-thioxohexahydroimidazo[1,5-a]pyridin-2(3H)-yl)phenyl)pyridazine-3-carboxamide], the negative-log EC50 (pEC50) was 5.72.

Consider `O=C(Nc1ccc(N2C(=O)C3CN(C4CCCCC4)CCN3C2=O)c(Cl)c1)c1ccccn1` (stereo not shown) [Example 1.3.71, N-(3-chloro-4-(7-cyclohexyl-1,3-dioxohexahydroimidazo[1,5-a]pyrazin-2(3H)-yl)phenyl)picolinamide], for which the pEC50 is 5.65.
